# Results as given in ChEMBL document CHEMBL4020772, “Alkaloids from aerial parts of Houttuynia cordata and their anti-inflammatory activity” (Bioorg Med Chem Lett, 2017).
# Tested on: RAW264.7
# Test: Antiinflammatory activity in mouse RAW264.7 cells assessed as reduction in LPS-induced NO production pretreated for 30 mins followed by LPS stimulation for 24 hrs by Griess assay
# Type: functional, cell-based
row,Compound,IC50 [µM]
1,COc1cc2c(cc1O)CC1c3c(cc(OC)c(O)c3-2)CCN1C (configuration not stated),> 10
2,COc1cc2c(cc1O)CC1NCCc3cc(OC)c(O)c-2c31 (configuration not stated),> 10
3,COc1cc(CC2c3cc(O)c(OC)cc3CCN2C)ccc1O (configuration not stated),> 10
4,C[S+]([O-])C[C@H]1O[C@@H](n2cnc3c(N)ncnc32)[C@H](O)[C@@H]1O (some centres not stated),> 10
5,COc1cc2c3c(c1OC)-c1ccccc1CC3NCC2 (configuration not stated) [NORNUCIFERINE],> 10
6,COc1cc2c(cc1O)CC1NCCc3cc(OC)c(OC)c-2c31 (configuration not stated),> 10
7,COc1c(O)cc2c3c1-c1ccccc1CC3NCC2 (configuration not stated),> 10
8,COc1cc2c(cc1O)CC1c3c(cc(OC)c(OC)c3-2)CCN1C (configuration not stated),> 10
9,COc1c(O)cc2c3c1-c1ccccc1CC3N(C)CC2 (configuration not stated),> 10

# Other lines, results leading:
row,IC50 [µM],Compound
1,> 10,O=C(NC[C@@H](O)c1ccccc1)c1ccc(O)cc1
2,> 10,O=C(NC[C@@H](O[C@@H]1O[C@H](CO)[C@@H](O)[C@H](O)[C@H]1O)c1ccccc1)c1cccc(O)c1
3,> 10,O=C(O)c1c[nH]c2ccccc12
4,> 10,COCc1ccc(C=O)n1CCCC(=O)O
5,> 10,O[C@]12CO[C@@H](Cc3nccc4c3[nH]c3ccccc34)[C@H]1O2
6,8.7,OCc1ccc(-c2nccc3c2[nH]c2ccccc23)o1 [PERLOLYRIN]
7,> 10,NC(=O)c1cccnc1 [NIACINAMIDE]
8,> 10,O=c1ccn([C@@H]2O[C@H](CO)[C@@H](O)[C@H]2O)c(=O)[nH]1 [URIDINE]
9,7,C[C@@H]1C[C@H]2[C@@H]3CCC4=CC(=O)C=C[C@]4(C)[C@@]3(F)[C@@H](O)C[C@]2(C)[C@@]1(O)C(=O)CO [DEXAMETHASONE]
10,> 10,O=C(NC[C@@H](O[C@@H]1O[C@H](CO)[C@@H](O)[C@H](O)[C@H]1O)c1ccccc1)c1ccccc1
11,> 10,O=c1ccc2ccccc2[nH]1
12,> 10,COc1c(O)cc2c3c(cc4ccccc4c13)NC(=O)C2=O [NORARISTOLODIONE]
13,> 10,Nc1ncnc2c1ncn2[C@@H]1O[C@H](CO)[C@@H](O)[C@H]1O [ADENOSINE]
